Columns and labels:
TRPV1 [1] = conditions: ref [14], cited from earlier work
Description: APHC3’s mode of action was measured on HEK-293 cells using a whole-cell patch clamp approach and single cell Ca^2+ imaging. […] APHC3 is highly homologous to APHC1, differing in four of 56 amino acids. APHC1 and APHC3 have a primary structure that is highly homologous to BPTI/Kunitz type seri ... || The residues responsible for APHC’s activity are not determined. […] These dif ...

TRPV1 [2] = test: single cell Ca^2+ imaging, acid-induced (pH 5.5) responses of TRPV1-positive HEK-293 cells; assay type: cell-based, rat; conditions: for inhibition of acid responses: Fura-2, mean ± s.d.
Description: Figure 2 Effects of APHC3 on recombinant TRPV1 expressed in HEK-293 cells. (a) Resting current recorded from a TRPV1-positive cell held at −30 mV. […] Straight lines above the recording indicate application of APHC3 (Long line) and capsaicin (Short lines). The cells were stimulated and rinsed by rapid switching of the bath solution between the control solution and solutions containing the indicated compound. (b) Capsaicin responses in control and in the presence of the 300 nM APHC3 peptide. In each case, the control response was calculated as an average of two acid responses recorded just prior to peptide application. Averaged responses recorded in the presence of APHC3 were normalized to averaged control responses. Those are presented as the mean ± s.d. (n = 4). […] (c, d) Cell responses to the acidification of the bath solution from pH 7.4 to pH 5.5 in control and in the presence of the APHC3 applied at different concentrations as indicated. The experimental traces in (c) and in (d, upper trace) illustrate representative responses of EGFP/TRPV1-positive cells. The bottom trace in (d) represents responses of an EGFP/TRPV1-negative cell assayed simultaneously. (e) Acid responses recorded in the presence of APHC3 (90, 160 and 240 nM) normalized to a control response. The data are presented as the mean ± s.d. (n = 5–10). […] In each case, the control response was calculated as an average of the two acid responses recorded just prior to peptide application. The average of the two acid responses recorded after peptide application was calculated and normalized to the control response. Experimental traces in (c, d) were obtained from three different cells. The changes in bath solution pH (continuous lines) and APHC3 applications (thick straight lines) are shown above the fluorescence traces. Cells were stimulated and rinsed by a rapid replacement of the control bath solution with modified bath solution at pH 5.5 with or without APHC3.
HEK-293 cells were cultured in Dulbecco’s modified Eagle’s medium (DMEM) (Life Technologies, Grand Island, NY, USA) containing 10% (vol/vol) fetal bovine serum (Thermo Fisher Scientific, Palm Beach, FL, USA), glutamine (1%) and the antibiotic gentamicin (100 μg/mL) (Life Technologies, Grand Island, NY, USA). The pIRES2-EGFP plasmid harboring rat TRPV1 cDNA was transiently transfected into HEK-293 cells by replacing the growth medium in each well with a transfection mixture, containing 1.6 μg of DNA and 4 μL of Lipofectamine (Life Technologies, Grand Island, NY, USA) in 1 mL of serum-free DMEM. After incubating for 6 h, the transfection mixture was replaced with normal culture medium. Cells were assayed within 48–96 h after transfection.

Substance	inhibition of capsaicin-induced currents (TRPV1 [1]; more than 200 nM)	activity on capsaicin-induced TRPV1 currents, in words (TRPV1 [1]; previous study)	reversibility of inhibitory effects (TRPV1 [2]; after washout of the polypeptide, Figure 2a,c,d (capsaicin currents and acid responses))	inhibition of acid-induced Ca^2+ transients, significance (TRPV1 [2]; pH 5.5, 160 and 240 nM, Student test, p < 0.05)	inhibition of acid responses, in words (TRPV1 [2]; pH 5.5, APHC3 90 nM, n = 5)	inhibition of acid responses (TRPV1 [2]; pH 5.5, APHC3 160 nM, n = 7)	inhibition of acid responses (TRPV1 [2]; pH 5.5, APHC3 240 nM, 10 cells)
APHC1: polypeptide modulator of TRPV1 from sea anemone Heteractis crispa; homologous to BPTI/Kunitz type serine-protease inhibitors; produced recombinantly in E. coli (GSICLEPKVVGPCTAYFRRFYFDSETGKCTVFIYGGCEGNGNNFETLRACRAICRA; left off: TRX, end not stated, cleaved)	~ 32%	partial antagonist	–	–	–	–	–
APHC3: polypeptide from Heteractis crispa highly homologous to APHC1, differing in four of 56 amino acids; produced recombinantly in E. coli (GSICLEPKVVGPCTAYFPRFYFNSETGKCTPFIYGGCEGNGNNFETLRACRGICRA; left off: TRX, end not stated, cleaved)	–	–	almost completely reversible	statistically significant at 160 and 240 nM	insignificantly effective	15% ± 9%	77% ± 14%

— article PMC3877906, “Polypeptide Modulators of TRPV1 Produce Analgesia without Hyperthermia” (Marine Drugs, 2013)
